The values below come from patent publication US20090061024A1, “COMPOSITIONS AND METHODS EMPLOYING NMDA ANTAGONISTS FOR ACHIEVING AN ANESTHETIC-SPARING EFFECT” (Wyeth, priority 2007, published 2009).

Data set [1] has as its system cingulate and retrosplenial cortices. The settings on record: mice and rats, cited from earlier work.
For data set [2] the following is noted: doses typically used clinically; cited from earlier work.
The test system of data set [3] is rats trained to distinguish between PCP and saline. To be noted: cited from earlier work.
Data set [4] is described as follows: Anesthetic-sparing effect of perzinfotel with isoflurane (summary statements). The data set is classed as in vivo, dogs. To be noted: in combination with anesthetic (isoflurane); doses without reduced cardiopulmonary function.
For data set [5] the following is noted: doses needed to relieve hyperalgesia in preclinical pain models; cited from earlier work.

Where two headings read alike, the source gives them in different places.

For the compound `O=C(O)[C@H]1C[C@@H](CP(=O)(O)O)CCN1` (relative stereo) [CGS-19755, cis-4-phosphonomethyl-2-piperidine carboxylic acid], in data set [1] (behaviorally effective doses), the “vacuoles in some layers of the cingulate and retrosplenial cortices” value is given as “transient, reversible induction of vacuoles”. Besides, in data set [1], the “effectiveness:vacuolization ratio” value is recorded as 1.

Consider `CNC1(c2ccccc2Cl)CCCCC1=O` (centres unmarked) [ketamine], for which the anesthetic-sparing effects in data set [2] is recorded as 10-20%.

As to `C[C@]12N[C@H](Cc3ccccc31)c1ccccc12` [dizocilpine], in data set [3], the “substitution for PCP (discriminative stimulus effects)” value (from here on “substitution for PCP”) is reported as “substitute”.

In the case of `CC12CC3CC(C)(C1)CC(N)(C3)C2` [memantine], the “substitution for PCP” value in data set [3] was “substitute”.

For `O=c1c2c(c1=O)N(CCP(=O)(O)O)CCCN2` [Perzinfotel, [2-(8,9-dioxo-2,6-diazabicyclo[5.2.0]non-1-(7)-en-2-yl)ethyl]phosphonic acid], the anesthetic-sparing effects result in data set [4] is “up to 60%”. Moreover, the “substitution for PCP” value in data set [3] is recorded as “did not substitute”. Besides, the ataxia or sedation entry in data set [5] is given as “did not produce ataxia or sedation”.
